These results are taken from patent US20220213060A1, “Crystal Form of Quinazolinone Compound and Preparation Method Therefor” (Luoxin Healthcare Science and Technology Development …, priority 2019, published 2022).

A short description of series [1]: Beagle dog absorption test (pharmacokinetics). The class given is in vivo, Beagle dogs. The following applies: male and female Beagle dogs, oral, 0.3 mg/kg, single. On the procedure: Beagle dogs were given the crystal form A of the compound represented by formula (I) by single or multiple oral administration and single intravenous injection respectively, with 6 dogs in each group, half male and half female. The single oral doses were 0.3, land 3 mg/kg respectively; the multiple doses were 1 mg/kg, once a day for 7 consecutive days; the single intravenous dose was 0.3 mg/kg. According to the drug plasma concentration-time curve, the pharmacokinetic parameters were calculated, the results are shown in Table 15. The vehicle for drug preparation in group 1 was 5% HP-beta-CD, 5% solutol, pH=8 aqueous solution, the vehicles for groups 2, 3, 4 were 0.5% MC, 0.2% Tween80 aqueous solution.

The next series relates to MCF7 cell line. Briefly: In vitro cell activity test: ELISA of Akt phosphorylation in MCF7 cells. Type of series: cell-based. The following applies: Homo sapiens; inhibition of Akt phosphorylation, insulin-stimulated MCF7 cells. The source says: ELISA method was used to measure the inhibition level of the compounds to be tested on the phosphorylation of Akt, which is the downstream protein of PI3K in signal pathway in MCF7 cell line to reflect the cell activity of the compounds.
Cell culture medium: complete cell culture medium (RPMI 1640+10% serum+1% L-glutamine+1% double antibody)
Serum-free medium (without serum, RPMI 1640+1% L-glutamine+1% double antibody)
Specific operation steps were as follows:
(1) MCF7 cells (ATCC® HTB-22™) were inoculated into a 96-well plate with 100 μL (2.5 10^4 cells per well) of complete cell culture medium, and incubated at 37° C. and 5% CO2 for 24 hours.
(2) The complete cell culture medium was replaced with 100 μL serum-free medium, and incubated overnight in starvation
(3) The compound (the initial concentration of the compound was 1 mM, which was subjected to a three-fold dilution in 10 concentrations. Then, each concentration of the compound was diluted 100-fold with serum-free medium), and 25 μL of the diluted compound was added to the well plate containing cells.
(4) The cells were incubated at 37° C. and 5% CO2 for 2 h
(5) 10 μg/mL insulin (Sigma #I9278-5 mL) was used to stimulate the cells in the well plate, incubated for 30 min, and then centrifuged at 1000 rpm for 5 min at room temperature.
(6) 250 μL 1× balanced salt solution (Invitrogen, #14065-056, 4° C., containing 1 mM/L Na3VO4) was added to each well to wash the cells once
(7) 100 μL of lysis buffer (tris(hydroxymethyl)aminomethane hydrochloride, Invitrogen, #15567-1000 ml) was added to each well and shaken at 4° C. for 60 min, and then centrifuged at 4000 rpm for 10 min at 4° C.
(8) The subsequent steps were performed according to the ELISA kit (TGR BioSciences #EKT002) instructions.

For series [2], the system named is HR+/HER2+ human breast cancer BT-474 (PIK3CA amplified). Briefly: In vivo pharmacodynamic study, BT-474 nude mouse subcutaneous xenograft tumor model. More on the design: species or system BALB/c nude mice. On the procedure:
The phenotype of human BT-474 breast cancer cells is HR+/HER2+, and it has PIK3CA amplification. This experiment evaluated the efficacy of the crystal form A of the compound represented by formula (I) in a human breast cancer xenograft tumor model, using BYL-719 as a reference.
Cell culture: Human breast cancer BT474 cells were cultured in vitro in a single layer, the culture condition was Hybri-Care medium with 10% fetal bovine serum and the cells were incubated in 5% CO2 at 37° C. Digestion and passage treatment with trypsin-EDTA was carried out twice a week. When the cell saturation was 80%-90% and the number reached the requirement, the cells were collected, counted and inoculated.
Animals: BALB/c nude mice, female, 6-8 weeks old, weighing 18-20 g. A total of 85 animals were required, and provided by Shanghai Bikai experimental animal Co., Ltd.
Tumor inoculation: Estrogen tablets (0.36 mg/tablet) were subcutaneously inoculated on the left back of each mouse, three days later, 0.2 mL (10×10^6 cells) of BT474 cells (with matrigel in a volume ratio of 1:1) were subcutaneously inoculated on the right back of each mouse, group administration was started when the average tumor volume reached 150 mm^3−200 mm^3.
Tumor-bearing mice in each administration group had good tolerance to the tested compounds.

In the next series the target is T1, PI3Kγ (Homo sapiens, UniProt P48736).
T1 construct: purchased Millipore 14-558-K
T1 sequence (P48736 whole entry): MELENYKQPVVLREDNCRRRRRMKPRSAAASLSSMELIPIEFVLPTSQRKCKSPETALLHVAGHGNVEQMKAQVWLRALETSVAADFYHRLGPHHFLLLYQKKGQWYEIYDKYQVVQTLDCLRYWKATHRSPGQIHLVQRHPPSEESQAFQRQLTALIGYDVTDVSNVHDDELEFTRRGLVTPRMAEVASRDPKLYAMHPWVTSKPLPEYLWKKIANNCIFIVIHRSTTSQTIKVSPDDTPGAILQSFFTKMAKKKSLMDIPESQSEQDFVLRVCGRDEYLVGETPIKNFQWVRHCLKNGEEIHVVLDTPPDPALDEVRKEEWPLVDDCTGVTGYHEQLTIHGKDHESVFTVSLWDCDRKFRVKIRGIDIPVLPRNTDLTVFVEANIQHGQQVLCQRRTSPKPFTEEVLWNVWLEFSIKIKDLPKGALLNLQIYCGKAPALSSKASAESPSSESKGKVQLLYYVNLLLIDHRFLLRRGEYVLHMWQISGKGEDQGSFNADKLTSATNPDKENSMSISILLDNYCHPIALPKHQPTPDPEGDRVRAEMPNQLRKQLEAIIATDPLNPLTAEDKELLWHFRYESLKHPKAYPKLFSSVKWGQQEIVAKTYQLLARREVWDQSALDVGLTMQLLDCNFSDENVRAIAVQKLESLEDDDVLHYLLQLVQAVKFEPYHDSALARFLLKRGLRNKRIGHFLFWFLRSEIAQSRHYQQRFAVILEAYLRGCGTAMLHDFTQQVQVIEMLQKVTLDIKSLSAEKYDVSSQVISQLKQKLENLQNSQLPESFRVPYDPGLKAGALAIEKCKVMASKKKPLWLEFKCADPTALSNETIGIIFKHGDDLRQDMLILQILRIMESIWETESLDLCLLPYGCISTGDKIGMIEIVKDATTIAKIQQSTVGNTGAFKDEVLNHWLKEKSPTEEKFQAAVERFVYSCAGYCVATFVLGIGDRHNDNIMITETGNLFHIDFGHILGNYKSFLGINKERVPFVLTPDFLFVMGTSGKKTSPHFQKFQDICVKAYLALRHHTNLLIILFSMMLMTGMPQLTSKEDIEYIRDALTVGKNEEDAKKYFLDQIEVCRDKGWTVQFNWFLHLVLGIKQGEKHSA
Briefly: In vitro enzymatic activity test (ADP-Glo lipid kinase), PI3Kγ. The class given is biochemical. The following applies: Table 17, in vitro screening. Here is the method:
(§1) The lipid kinase reaction was carried out in a suitable substrate and under ATP conditions, then the activity of the kinase was detected by ADP-Glo™ kit in two steps. Step 1: the kinase reaction was terminated, in which the residual ATP was completely removed and only ADP was retained; step 2: kinase detection reagent was added to convert ADP to ATP, accompanied by fluorescein/luciferase reaction. Finally, the fluorescence value output was converted into kinase activity.
(§2) Experimental Materials and Equipment:
(§3) 2) Kit: ADP-Glo™ lipid kinase and PIP2:3PS kit (Promega #V1792)
(§4) The reagent kit contains: 1 mM PIP2:3PS, 10× lipid dilution buffer, 1 M magnesium chloride, 10 mM ATP, 10 mM ADP, ADP-Glo reagent, detection buffer and detection substrate.
(§5) 3) Reaction plate: OptiPlate-384, white and transparent (PerkinElmer #6007299)
(§6) 1) 10× reaction buffer: 500 mM HEPES, pH 7.5, 500 mM NaCl, […]; BSA: 10% stock solution, self-made
(§7) 2) Final test system conditions: 1× reaction system: 50 mM of HEPES, 50 mM of NaCl, 3 mM of MgCl2, 0.01% BSA (freshly prepared on the day of experiment), 1% DMSO (v/v)+/−compound
(§8) 3) Reaction system: 3 μL of mixture of enzyme and substrate (1:1)+2 μL of ATP/MgCl2 mixture+5 μL of ADP-Glo reagent+10 μL of detection reagent.
(§9) The specific experimental operations were as follows: […]
(§10) (16) Fluorescence values were measured on the Envision instrument.
For orientation: ADP-Glo turns the ADP formed in a reaction into a luminescent signal.

Another series addresses T2, PI3Kα (Homo sapiens, UniProt P42336).
T2 construct: purchased Millipore 14-602-K
Briefly: In vitro enzymatic activity test (ADP-Glo lipid kinase), PI3Kα wild type. Type of series: biochemical. The settings on record: Table 17, in vitro screening; read-out: PI3Kα IC50. On the procedure: as §1, §2, §3, §4, §5, §6, §7, §8, §9, §10

The target in a further series is T3, PI3Kδ (Homo sapiens, UniProt O00329).
T3 construct: purchased Millipore 14-604-K
T3 sequence (O00329 whole entry): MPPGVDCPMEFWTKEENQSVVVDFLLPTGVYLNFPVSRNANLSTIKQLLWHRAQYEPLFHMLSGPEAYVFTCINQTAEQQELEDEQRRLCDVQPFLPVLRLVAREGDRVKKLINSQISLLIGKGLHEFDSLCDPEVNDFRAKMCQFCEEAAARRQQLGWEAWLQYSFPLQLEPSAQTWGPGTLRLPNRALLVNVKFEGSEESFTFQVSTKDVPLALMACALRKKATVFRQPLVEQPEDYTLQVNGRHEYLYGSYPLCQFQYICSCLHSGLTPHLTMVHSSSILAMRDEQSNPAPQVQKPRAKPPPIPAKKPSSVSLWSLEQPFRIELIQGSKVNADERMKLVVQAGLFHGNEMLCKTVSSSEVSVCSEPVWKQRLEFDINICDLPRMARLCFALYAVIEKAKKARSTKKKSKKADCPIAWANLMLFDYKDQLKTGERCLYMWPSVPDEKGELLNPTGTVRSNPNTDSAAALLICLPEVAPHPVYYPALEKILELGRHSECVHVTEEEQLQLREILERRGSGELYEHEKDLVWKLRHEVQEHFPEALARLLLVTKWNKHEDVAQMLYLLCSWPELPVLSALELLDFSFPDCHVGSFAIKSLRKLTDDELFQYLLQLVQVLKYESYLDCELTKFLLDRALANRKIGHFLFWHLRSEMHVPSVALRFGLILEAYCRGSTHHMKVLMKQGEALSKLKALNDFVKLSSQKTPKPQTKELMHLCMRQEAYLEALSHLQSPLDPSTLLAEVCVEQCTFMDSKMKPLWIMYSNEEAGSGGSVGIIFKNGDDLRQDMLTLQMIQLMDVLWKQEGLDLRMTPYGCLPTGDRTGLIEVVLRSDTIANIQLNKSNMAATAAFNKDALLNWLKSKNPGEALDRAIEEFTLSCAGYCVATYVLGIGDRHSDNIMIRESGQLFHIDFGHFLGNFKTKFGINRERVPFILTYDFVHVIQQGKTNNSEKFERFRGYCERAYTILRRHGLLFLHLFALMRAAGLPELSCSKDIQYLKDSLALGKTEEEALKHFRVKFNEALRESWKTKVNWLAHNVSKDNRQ
T3 sequence (P27986 whole entry partner): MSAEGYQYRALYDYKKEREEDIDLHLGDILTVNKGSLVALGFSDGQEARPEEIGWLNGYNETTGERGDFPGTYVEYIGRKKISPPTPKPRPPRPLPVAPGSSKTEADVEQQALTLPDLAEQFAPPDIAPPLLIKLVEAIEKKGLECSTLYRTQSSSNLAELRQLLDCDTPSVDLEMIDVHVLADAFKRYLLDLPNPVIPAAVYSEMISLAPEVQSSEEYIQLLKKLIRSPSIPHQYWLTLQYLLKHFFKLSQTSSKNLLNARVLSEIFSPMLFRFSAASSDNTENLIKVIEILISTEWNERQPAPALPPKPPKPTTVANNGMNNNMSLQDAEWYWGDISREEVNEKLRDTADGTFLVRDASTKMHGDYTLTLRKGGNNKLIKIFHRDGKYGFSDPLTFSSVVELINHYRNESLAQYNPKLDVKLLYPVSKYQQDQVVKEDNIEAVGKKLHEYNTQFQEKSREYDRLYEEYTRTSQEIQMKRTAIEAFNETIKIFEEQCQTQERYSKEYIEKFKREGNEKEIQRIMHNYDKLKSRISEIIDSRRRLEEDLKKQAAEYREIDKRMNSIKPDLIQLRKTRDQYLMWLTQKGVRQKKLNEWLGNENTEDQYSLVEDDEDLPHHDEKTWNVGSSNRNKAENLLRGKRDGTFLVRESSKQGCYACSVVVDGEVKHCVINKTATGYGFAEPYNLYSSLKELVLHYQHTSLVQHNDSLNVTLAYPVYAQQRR
Briefly: In vitro enzymatic activity test (ADP-Glo lipid kinase), PI3Kδ. Type of series: biochemical. The following applies: Table 17, in vitro screening. Here is the method: as §1, §2, §3, §4, §5, §6, §7, §8, §9, §10

In the next series the target is T4, PI3Kβ (Homo sapiens, UniProt P42338).
T4 construct: purchased Promega V1751
T4 sequence (P42338 whole entry): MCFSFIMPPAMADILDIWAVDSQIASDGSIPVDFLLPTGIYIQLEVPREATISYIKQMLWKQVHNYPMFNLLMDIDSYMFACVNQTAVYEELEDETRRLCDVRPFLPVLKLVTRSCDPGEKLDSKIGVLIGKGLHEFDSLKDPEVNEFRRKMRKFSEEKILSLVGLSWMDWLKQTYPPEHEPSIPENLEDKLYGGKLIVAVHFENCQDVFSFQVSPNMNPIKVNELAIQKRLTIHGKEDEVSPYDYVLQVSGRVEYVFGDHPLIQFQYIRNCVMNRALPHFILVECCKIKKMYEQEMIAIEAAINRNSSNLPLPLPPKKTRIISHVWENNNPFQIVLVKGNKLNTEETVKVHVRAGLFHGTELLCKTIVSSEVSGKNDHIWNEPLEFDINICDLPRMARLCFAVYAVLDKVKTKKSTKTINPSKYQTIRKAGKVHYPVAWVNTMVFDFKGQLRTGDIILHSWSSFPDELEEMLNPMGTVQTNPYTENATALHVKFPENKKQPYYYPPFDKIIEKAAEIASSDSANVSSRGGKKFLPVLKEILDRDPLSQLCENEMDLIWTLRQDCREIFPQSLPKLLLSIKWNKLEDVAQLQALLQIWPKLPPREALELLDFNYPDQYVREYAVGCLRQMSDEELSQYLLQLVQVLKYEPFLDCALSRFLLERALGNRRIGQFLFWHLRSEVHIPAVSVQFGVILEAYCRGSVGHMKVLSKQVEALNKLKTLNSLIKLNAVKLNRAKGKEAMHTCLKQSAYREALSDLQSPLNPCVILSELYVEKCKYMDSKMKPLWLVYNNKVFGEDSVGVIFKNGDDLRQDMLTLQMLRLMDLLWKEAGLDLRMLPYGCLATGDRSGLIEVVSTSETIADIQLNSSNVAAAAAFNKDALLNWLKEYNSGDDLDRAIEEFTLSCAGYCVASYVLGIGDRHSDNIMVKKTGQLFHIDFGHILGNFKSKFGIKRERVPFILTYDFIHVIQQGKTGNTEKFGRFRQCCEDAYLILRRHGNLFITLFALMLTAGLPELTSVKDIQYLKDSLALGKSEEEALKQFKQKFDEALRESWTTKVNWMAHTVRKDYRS
T4 sequence (P27986 whole entry partner): as the sequence (P27986 whole entry partner) above
Briefly: In vitro enzymatic activity test (ADP-Glo lipid kinase), PI3Kβ. The class given is biochemical. The settings on record: Table 17, in vitro screening. Here is the method:
as §1, §2, §3, §4, §5, §6, §7, §8, §9, §10

A short description of series [3]: Hygroscopicity by dynamic vapor sorption (DVS). Type of series: physicochemical. The settings on record: 25° C. and 80% RH. Here is the method: 1.4 Dynamic Vapor Sorption (DVS) Method of the Present Disclosure
Instrument model: SMS DVS Advantage dynamic vapor sorption instrument
Detection conditions: 10-20 mg of sample was placed in a DVS sample tray for testing.
Detailed DVS parameters were as follows:
Equilibrium: dm/dt=0.01%/min: (shortest: 10 min, longest: 180 min)
Drying: drying at 0% RH for 120 min
RH (%) test gradient: 10%
RH (%) test gradient range: 0%-90%-0%
Hygroscopicity evaluation is classified as follows:
20 mg of the crystal form A of the compound represented by formula (I) was placed in the DVS sample tray for testing.

The mark [4] stands for this setting: 40 mg/kg, oral once a day for 20 days.

T2 sequence (P42336 whole entry): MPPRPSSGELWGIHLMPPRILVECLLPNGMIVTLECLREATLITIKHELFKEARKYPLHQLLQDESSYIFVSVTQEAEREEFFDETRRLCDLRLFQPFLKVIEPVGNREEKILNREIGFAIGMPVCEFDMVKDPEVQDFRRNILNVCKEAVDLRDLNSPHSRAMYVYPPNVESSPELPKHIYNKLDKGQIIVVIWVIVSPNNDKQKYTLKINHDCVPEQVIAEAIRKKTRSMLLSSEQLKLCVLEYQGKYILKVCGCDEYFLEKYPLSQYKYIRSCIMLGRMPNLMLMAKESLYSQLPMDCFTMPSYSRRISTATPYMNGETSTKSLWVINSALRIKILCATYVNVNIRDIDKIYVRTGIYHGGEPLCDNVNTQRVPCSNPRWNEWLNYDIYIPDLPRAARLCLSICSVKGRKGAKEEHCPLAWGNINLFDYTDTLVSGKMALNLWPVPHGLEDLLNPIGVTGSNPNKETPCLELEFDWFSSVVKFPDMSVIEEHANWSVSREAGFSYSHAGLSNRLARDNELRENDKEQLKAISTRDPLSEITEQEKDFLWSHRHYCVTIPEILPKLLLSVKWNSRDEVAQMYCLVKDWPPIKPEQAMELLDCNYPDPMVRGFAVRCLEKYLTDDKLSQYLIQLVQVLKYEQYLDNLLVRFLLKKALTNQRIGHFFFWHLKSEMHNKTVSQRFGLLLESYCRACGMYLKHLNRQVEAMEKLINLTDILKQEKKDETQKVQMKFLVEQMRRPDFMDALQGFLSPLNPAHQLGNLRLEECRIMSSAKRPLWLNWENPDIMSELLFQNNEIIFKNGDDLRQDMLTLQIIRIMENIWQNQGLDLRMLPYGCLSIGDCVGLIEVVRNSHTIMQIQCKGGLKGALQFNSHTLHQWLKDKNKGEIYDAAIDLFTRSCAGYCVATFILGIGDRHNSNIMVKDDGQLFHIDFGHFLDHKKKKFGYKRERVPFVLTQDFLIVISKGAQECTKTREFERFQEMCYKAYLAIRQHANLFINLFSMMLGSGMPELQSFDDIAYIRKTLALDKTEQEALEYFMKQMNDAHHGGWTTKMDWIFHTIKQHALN
T2 sequence (P27986 whole entry partner): as the sequence (P27986 whole entry partner) above

With `CNC(=O)[C@H](C)Cn1cnc2ccc(-c3cnc(OC)c(NS(=O)(=O)c4ccc(F)cc4F)c3)cc2c1=O` [listing 1 of 2 here], the “Oral bioavailability (%)” value in series [1] is 71.2%.
With `COc1ncc(-c2ccc3ncn(CCN(C)C)c(=O)c3c2)cc1NS(=O)(=O)c1ccc(F)cc1` [R011 (A2)], in the series on MCF7 cell line, inhibition was half-maximal at 230 nM (IC50).
Regarding `Cc1nc(NC(=O)N2CCC[C@H]2C(N)=O)sc1-c1ccnc(C(C)(C)C(F)(F)F)c1` [BYL-719, reference compound], in series [2] (40 mg/kg group), the “Anti-tumor effect (in words)” value is recorded as “significant anti-tumor effects”. In addition, in series [2] (setting [4]), the T/C % stood at 29.39% and the TGI % is listed as 95.31%.
As for `CNC(=O)[C@H](C)Cn1cnc2ccc(-c3cnc(OC)c(NS(=O)(=O)c4ccc(F)cc4F)c3)cc2c1=O` [Compound represented by formula (I)], the IC50 (usually the concentration at which inhibition is half-maximal) against PI3Kγ turned out to be 19.8 nM; on PI3Kα it was 1.75 nM; on PI3Kδ it was 25.3 nM; against PI3Kβ, 192 nM; with MCF7 cell line, 35.3 nM.
The compound `CCN(CC)CCn1cnc2ccc(-c3cnc(OC)c(NS(=O)(=O)c4ccc(F)cc4F)c3)cc2c1=O` [R012 (A10)] yielded an IC50 in the series on MCF7 cell line of more than 1000 nM.
Regarding `CNC(=O)[C@H](C)Cn1cnc2ccc(-c3cnc(OC)c(NS(=O)(=O)c4ccc(F)cc4F)c3)cc2c1=O` [listing 2 of 2 here], in series [3], the Classification for hygroscopicity result is “hygroscopic” and the “ΔW, hygroscopical weight gain” value is reported as 2.332%.
